Reference: the supplement of paper PMC10883282

Key:
Assay in all cases: relative viability vs DMSO control (72 h) (fraction); higher = more viable cells
RD = system: RD
How it was run: (§1)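 Sarcoma cell lines in 384-well plates, seeded to reach 80–90% confluence, were given compound after 24 h and kept 72 h at 37 °C, 5% CO2, with 0.1% DMSO vehicle and a 5 µM positive control. Relative viability came from ATPLite as percent growth, averaged over up to triplicate wells. On the rescaled values, 1 equals full and 0 equals none.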

VA-ES-BJ = system: VA-ES-BJ
How it was run: as §1

HT1080 = system: HT1080
How it was run: as §1

KHOS-NP = system: KHOS-NP
How it was run: as §1

RD-ES = system: RD-ES
How it was run: as §1

CCc1nc(C(N)=O)c(Nc2ccc(N3CCC(N4CCN(C)CC4)CC3)c(OC)c2)nc1NC1CCOCC1 [Gilteritinib]
relative viability
Conditions	HT1080	KHOS-NP	RD	RD-ES	VA-ES-BJ
60 pM	1.08	1.08	1.06	0.986	0.988
0.00018 µM	1.032	1.12	1.06	0.961	0.986
0.00053 µM	0.999	1.07	1.07	0.9574	0.993
0.0016 µM	1.04	1.1	1.08	0.968	1.02
0.0048 µM	1.07	1.061	1.08	0.963	1
0.014 µM	1.05	1.06	1.07	0.938	0.997
0.043 µM	1.05	1.03	1.01	0.88	1.04
0.13 µM	1.05	1.02	0.829	0.687	0.937
0.389 µM	1	0.959	0.516	0.316	0.713
1.167 µM	0.6791	0.83	0.363	0.11	0.433
3.5 µM	0.595	0.695	0.32	0.14	0.3

O=S(=O)(c1cccc2c(O)nccc12)N1CCCNCC1 [Hydroxyfasudil]
relative viability
Conditions	HT1080	KHOS-NP	RD	RD-ES	VA-ES-BJ
0.00017 µM	1.1	1.09	1.089	0.996	1.07
0.00051 µM	1.09	1.09	1.14	1.02	1.1
0.00152 µM	1.13	1.086	1.16	1	1.11
0.00457 µM	1.06	1.1	1.14	1.01	1.08
0.01372 µM	1.1	1.09	1.15	1.01	1.07
0.04115 µM	1.099	1.1	1.16	1.011	1.061
0.1235 µM	1.102	1.08	1.15	1.03	1.06
0.3704 µM	1.1	1.07	1.16	1.04	1.09
1.111 µM	1.139	1.07	1.17	1.03	1.01
3.333 µM	1.1	1.049	1.17	1.04	1.01
10 µM	1.1	1.04	1.18	1.06	0.998
